{
  "source": "patent US6838472B2",
  "about": "“Substituted urea retinoid agonists” (Syntex (U.S.A.) LLC, priority 2001, dated 2005)",
  "note": "Values joined by “and” are separate entries in the source; they are usually repeats but may differ in a detail not shown here. Equal entries are not always repeated.",
  "data": [
    {"values": [
      {"smiles": "CC1(C)CCC(C)(C)c2cc(N(CCc3ccccc3)C(=O)Nc3ccc(C(=O)O)cc3)ccc21", "note": "[Compound 5, 4-[3-phenethyl-3-(5,5,8,8-tetramethyl-5,6,7,8-tetrahydro-naphthalen-2-yl)-ureido]-benzoic acid]", "melting point": "223 to 225 °C and 223 to 224.9 °C"},
      {"smiles": "CC1(C)CCC(C)(C)c2cc(N(Cc3ccc(F)cc3)C(=O)Nc3ccc(C(=O)O)cc3)ccc21", "note": "[Compound 19, 4-[3-(4-fluorobenzyl)-3-(5,5,8,8-tetramethyl-5,6,7,8-tetrahydro-naphthalen-2-yl)-ureido]-benzoic acid]", "melting point": "143 to 146 °C and 143.1 to 145.9 °C"},
      {"smiles": "CC1(C)CCC(C)(C)c2cc(N(Cc3ccc(Cl)cc3)C(=O)Nc3ccc(C(=O)O)cc3)ccc21", "note": "[Compound 21, 4-[3-(4-chlorobenzyl)-3-(5,5,8,8-tetramethyl-5,6,7,8-tetrahydro-naphthalen-2-yl)-ureido]-benzoic acid]", "melting point": "126 to 133.1 °C and 126 to 133 °C"},
      {"smiles": "COc1ccc(CN(C(=O)Nc2ccc(C(=O)O)cc2)c2ccc3c(c2)C(C)(C)CCC3(C)C)cc1", "note": "[Compound 23, 4-[3-(4-methoxybenzyl)-3-(5,5,8,8-tetramethyl-5,6,7,8-tetrahydro-naphthalen-2-yl)-ureido]-benzoic acid]", "melting point": "117 to 121 °C and 116.8 to 120.8 °C"},
      {"smiles": "CC1(C)CCC(C)(C)c2cc(N(Cc3cccs3)C(=O)Nc3ccc(C(=O)O)cc3)ccc21", "note": "[Compound 31, 4-[3-(5,5,8,8-tetramethyl-5,6,7,8-tetrahydro-naphthalen-2yl)-3-thiophen-2-ylmethyl-ureido]-benzoic acid]", "melting point": "167 to 170 °C and 167.1 to 170.1 °C"},
      {"smiles": "CCOCCN(C(=O)Nc1ccc(C(=O)O)cc1)c1ccc2c(c1)C(C)(C)CCC2(C)C", "note": "[Compound 33, 4-[3-(2-ethoxy-ethyl)-3-(5,5,8,8-tetramethyl-5,6,7,8-tetrahydro-naphthalen-2-yl)-ureido]-benzoic acid]", "melting point": "82 to 85 °C"},
      {"smiles": "CC1(C)CCC(C)(C)c2cc(N(CCCCOCc3ccccc3)C(=O)Nc3ccc(C(=O)O)cc3)ccc21", "note": "[Compound 41, 4-[3-(4-benzyloxy-butyl)-3-(5,5,8,8-tetramethyl-5,6,7,8-tetrahydro-naphthalen-2-yl)-ureido]-benzoic acid]", "melting point": "158 to 162 °C"},
      {"smiles": "CCCCCN(C(=O)Nc1ccc2c(c1)C(C)(C)CCC2(C)C)c1ccc(C(=O)O)cc1", "note": "[Compound 42, 4-[1-pentyl-3-(5,5,8,8-tetramethyl-5,6,7,8-tetrahydro-naphthalen-2-yl)-ureido]-benzoic acid]", "melting point": "201 to 202 °C"},
      {"smiles": "CCCCCN(C(=O)Nc1ccc(C(=O)O)cn1)c1ccc2c(c1)C(C)(C)CCC2(C)C", "note": "[Compound 49, 6-[3-pentyl-3-(5,5,8,8-tetramethyl-5,6,7,8-tetrahydro-naphthalen-2-yl) -ureido]-nicotinic acid]", "melting point": "175 to 179.5 °C"},
      {"smiles": "Cc1cc(CN(C(=O)Nc2ccc(C(=O)O)cc2)c2ccc3c(c2)C(C)(C)CCC3(C)C)no1", "note": "[Compound 57, 4-[3-(5-methyl-isoxazol-3-ylmethyl)-3-(5,5,8,8-tetramethyl-5,6,7,8-tetrahydro-naphthalen-2-yl)-ureido]-benzoic acid]", "melting point": "188 to 193 °C and 188.2 to 193 °C"},
      {"smiles": "CC1(C)CCC(C)(C)c2cc(N(CCCCO)C(=O)Nc3ccc(C(=O)O)cc3)ccc21", "note": "[Compound 71, 4-[3-(4-hydroxy-butyl)-3-(5,5,8,8-tetramethyl-5,6,7,8-tetrahydro-naphthalen-2-yl)-ureido]-benzoic acid]", "melting point": "124 to 125 °C"},
      {"smiles": "CCN(C(=O)N(CC)c1ccc2c(c1)C(C)(C)CCC2(C)C)c1ccc(C(=O)O)cc1", "note": "[Compound 73, 4-[1,3-diethyl-3-(5,5,8,8-tetramethyl-5,6,7,8-tetrahydro-naphthalen-2-yl)-ureido]-benzoic acid]", "melting point": "169 to 172 °C"}
    ]}
  ]
}
